Assay results as given in ChEMBL document CHEMBL5149967, “Chemical Highlights Supporting the Role of Lipid A in Efficient Biological Adaptation of Gram-Negative Bacteria to External Stresses” (J Med Chem, 2021).
Values after ≈ are worked out from the molar mass of the structure shown. Blank lines part the entries; values can stand above or below the compound they belong to. Residues, ends and D or L forms follow the SMILES beside them.

How the values were obtained:
[1] = Inhibition of Escherichia coli LpxA
[2] = Binding affinity to Escherichia coli LpxA assessed as inhibition constant
[3] = Inhibition of Klebsiella pneumoniae LpxH
[4] = Inhibition of Escherichia coli LpxH
Klebsiella pneumoniae [5] = experiment: Antibacterial activity against Klebsiella pneumoniae assessed as bacterial growth inhibition; type: functional
Klebsiella pneumoniae [6] = experiment: Inhibition of Klebsiella pneumoniae LpxH relative to control; conditions: concentration not given here
[7] = Binding affinity to bacterial LpxA assessed as dissociation constant; design: species or system Bacteria
[8] = Inhibition of Escherichia coli BL21(DE3) LpxA
[9] = Inhibition of bacterial LpxA; design: species or system Bacteria
Escherichia coli [10] = experiment: Antibacterial activity against Escherichia coli ATCC 25922 assessed as bacterial growth inhibition; type: functional, organism-based
Escherichia coli [11] = experiment: Antibacterial activity against Escherichia coli Delta tolC assessed as bacterial growth inhibition; type: functional, organism-based
[12] = Inhibition of bacterial LpxD; design: species or system Bacteria
Escherichia coli [13] = experiment: Antibacterial activity against Escherichia coli TolC minus assessed as bacterial growth inhibition; type: functional, organism-based
Pseudomonas aeruginosa [14] = experiment: Antibacterial activity against Pseudomonas aeruginosa ATCC 27853 assessed as bacterial growth inhibition; type: functional
Pseudomonas aeruginosa [15] = experiment: Antibacterial activity against Pseudomonas aeruginosa clinical isolate assessed as bacterial growth inhibition at <=2 ug/ml; type: functional; design: scale not given: the % may be the effect or the level left; conditions: dose <= 2 µg/ml; up to 2 µg/mL
[16] = Binding affinity to bacterial LpxA assessed as dissociation constant by SPR analysis; design: species or system Bacteria
[17] = Binding affinity to Pseudomonas aeruginosa LpxD assessed as dissociation constant
Escherichia coli [18] = experiment: Inhibition of Escherichia coli LpxH at 1 uM relative to control
[19] = Inhibition of mCherry-fused bacterial LpxH assessed as inhibition of UDP-DAG conversion by luminescence based assay; design: species or system Bacteria
[20] = Inhibition of Escherichia coli LpxC
[21] = Binding affinity to Escherichia coli LpxC assessed as inhibition constant
Escherichia coli [22] = experiment: Antibacterial activity against Escherichia coli envA+ assessed as bacterial growth inhibition; type: functional
Pseudomonas aeruginosa [23] = experiment: Antibacterial activity against Pseudomonas aeruginosa assessed as bacterial growth inhibition; type: functional
Escherichia coli [24] = experiment: Antibacterial activity against Escherichia coli assessed as bacterial growth inhibition; type: functional
[25] = Inhibition of bacterial FabF/B; design: species or system Bacteria
[26] = Inhibition of bacterial FabH; design: species or system Bacteria

SMILES: O=CN1CCc2cc(S(=O)(=O)N3CCN(c4cc(Cl)cc(C(F)(F)F)c4)CC3)ccc21
IC50 [3]: 26 nM | IC50 [4]: 46 nM | MIC (Klebsiella pneumoniae [5]): 1.6 µg/mL (≈ 3.38 µM) | inhibition (Klebsiella pneumoniae [6]): 64%

SMILES: O=CN1CCc2cc(S(=O)(=O)N3CCN(c4cccc(Br)c4)CC3)ccc21
inhibition (Klebsiella pneumoniae [6]): 48%

SMILES: COc1cccc(Cl)c1C[C@@H]1COCCN1C(=O)c1cc(-c2cc(C)c(N)cn2)n[nH]1
IC50 [9]: 600 nM | IC50 (Escherichia coli [10]): 16 µg/mL (≈ 36.2 µM) | IC50 (Escherichia coli [11]): < 0.125 µg/mL

SMILES: CC(C)(N)[C@H](NC(=O)c1ccc(C#CC#C[C@@H]2C[C@H]2CO)cc1)C(=O)NO [ACHN-975]
MIC (Escherichia coli [10]): 0.125 µg/mL (≈ 0.338 µM) | MIC (Pseudomonas aeruginosa [14]): 0.25 µg/mL (≈ 0.677 µM) | Activity (Pseudomonas aeruginosa [15]): 100%

SMILES: NC(=O)C1CN(C(=O)CSCCC(=O)O)c2ccccc2O1 (configuration not stated)
Kd [16]: 19500 nM | Kd [17]: 36700 nM

SMILES: O=CN1CCc2cc(S(=O)(=O)N3CCN(c4cccc(C(F)(F)F)c4)CC3)ccc21
MIC (Escherichia coli [10]): > 64 µg/mL | IC50 [3]: 360 nM | IC50 [4]: 140 nM | MIC (Klebsiella pneumoniae [5]): > 64 µg/mL | inhibition (Escherichia coli [18]): 45% | IC50 [19]: 1200 nM

SMILES: CCCc1cc(C2=NC(C(=O)NO)CO2)cc(OC)c1OC (configuration not stated)
IC50 [20]: 30 nM | Ki [21]: 50 nM | MIC (Escherichia coli [22]): 1 µg/mL (≈ 3.24 µM) | MIC (Pseudomonas aeruginosa [23]): > 100 µg/mL

SMILES: O=C(NO)[C@@H](Cc1ccc2ccccc2c1)NS(=O)(=O)c1ccc(Br)cc1
MIC (Escherichia coli [24]): 2 µg/mL (≈ 4.45 µM) | IC50 [20]: 400 nM | MIC (Pseudomonas aeruginosa [23]): > 32 µg/mL

SMILES: C/C=C/C/C=C/CCC(=O)[C@H]1O[C@H]1C(N)=O [CERULENIN]
IC50 [25]: 0.1 µg/mL (≈ 0.448 µM) | IC50 [26]: 150 µg/mL (≈ 672 µM)

More lines, main results first:

IC50 [1]: 60 nM
SMILES: CC[C@H](C)[C@H](NC(=O)[C@@H]1CCCN1C(=O)[C@H](CCC(=O)O)NC(=O)[C@H](CC(C)C)NC(=O)[C@H](CCSC)NC(=O)[C@H](Cc1c[nH]c2ccccc12)NC(=O)CNC(=O)[C@H](CO)NC(=O)[C@@H](N)CO)C(=O)N[C@@H](C)C(=O)NCC(=O)N[C@@H](CCCCN)C(=O)N[C@@H](Cc1c[nH]c2ccccc12)C(=O)N[C@@H](CO)C(=O)N[C@@H](CCCNC(=N)N)C(=O)O (H-SSGWMLEPIAGKWSR-OH)
Ki [2]: 50 nM

Kd [7]: 16700 nM
SMILES: O=C(COc1ccccc1)NNC1=CS(=O)(=O)c2ccccc21

IC50 [8]: 77 nM
SMILES: CC[C@H](C)[C@H](NC(=O)[C@@H]1CCCN1C(=O)[C@H](CC(=O)O)NC(=O)[C@H](CC(C)C)NC(=O)[C@H](CCSC)NC(=O)[C@H](Cc1c[nH]c2ccccc12)NC(=O)CN)C(=O)N[C@@H](C)C(=O)NCC(=O)N[C@@H](CCCCN)C(=O)N[C@@H](Cc1c[nH]c2ccccc12)C(=O)N[C@@H](CO)C(=O)N[C@@H](CCCNC(=N)N)C(=O)O (H-GWMLDPIAGKWSR-OH)

Kd [7]: 110000 nM | IC50 [9]: 4800 nM | MIC (Escherichia coli [10]): > 128 µg/mL
SMILES: Cc1ccnc(-c2cc(C(=O)N3CCOC[C@H]3Cc3ccccc3)[nH]n2)c1
IC50 (Escherichia coli [11]): 2 µg/mL (≈ 5.52 µM)

MIC (Klebsiella pneumoniae [5]): 32 µg/mL (≈ 55.4 µM) | inhibition (Klebsiella pneumoniae [6]): 79%
SMILES: O=C(CCCCNC(=O)Nc1ccc(S(=O)(=O)N2CCN(c3cc(Cl)cc(C(F)(F)F)c3)CC2)cc1)NO

IC50 [12]: 3200 nM
SMILES: CSCC[C@H](NC(=O)[C@H](Cc1ccccc1)NC(=O)[C@H](CC(N)=O)NC(=O)[C@H](CC(N)=O)NC(=O)[C@H](CCC(=O)O)NC(=O)[C@@H](N)CO)C(=O)N[C@@H](CC(C)C)C(=O)N1CCC[C@H]1C(=O)N[C@@H](CC(C)C)C(=O)N[C@@H](CC(C)C)C(=O)N1CCC[C@H]1C(=O)N[C@@H](CC(C)C)C(N)=O (H-SENNFMLPLLPL-NH2)
IC50 (Escherichia coli [13]): 3130 nM

IC50 [8]: > 100000 nM
SMILES: CSCC[C@H](NC(=O)[C@@H](N)Cc1c[nH]c2ccccc12)C(=O)N[C@@H](CC(C)C)C(=O)N[C@@H](CCC(=O)O)C(=O)O (H-WMLE-OH)

IC50 [8]: 9000 nM
SMILES: CC[C@H](C)[C@H](NC(=O)[C@@H]1CCCN1C(=O)[C@H](CCC(=O)O)NC(=O)[C@H](CC(C)C)NC(=O)[C@H](CCSC)NC(=O)[C@H](Cc1c[nH]c2ccccc12)NC(=O)CNC(=O)[C@H](CO)NC(=O)[C@@H](N)CO)C(=O)N[C@@H](C)C(=O)NCC(=O)N[C@@H](CCCCN)C(=O)N[C@@H](Cc1c[nH]c2ccccc12)C(=O)O (H-SSGWMLEPIAGKW-OH)
